Experimental data as given in patent US10646490B2, “Thieno- and pyrrolopyrimidine analogues and prodrugs thereof as anticancer agents and methods of use thereof” (UNIVERSITY OF MARYLAND, BALTIMORE COUNTY, priority 2015, dated 2020).
Like-named read-outs stand apart in the source and are kept apart here.

How the values were obtained:
[1] = Maximum tolerated dose / toxicity in mice; format: in vivo; details: for MTD: mouse, in vivo
Excerpt: (§1) In order to investigate the PK profile of these compounds, a series of halogenated pyrrolo[3,2-d]pyrimidine compounds was synthesized and first tested for activity in various cancer cell lines followed by a mouse model. […] This indicates a wide variance in activity and toxicity that necessitated the synthesis of a second series of compounds with N5 alkyl substitutions in an effort to slow the rate of metabolism, which was thought to be leading to the toxicity.

[2] = tested on: A549; test: Cancer cell line activity screening; format: cell-based
[3] = tested on: MIA Pa-Ca-2 pancreatic cancer cells; test: Cancer cell line activity screening; format: cell-based
[4] = tested on: MOLM14; test: Cancer cell line activity screening; format: cell-based
[5] = tested on: MDA-MB-231; test: Cancer cell line activity screening; format: cell-based, human
[6] = tested on: various cancer cell lines; test: Cancer cell line activity screening, panel; format: cell-based; details: Table 5; read-out: IC50 values as low as
Excerpt: as §1

[7] = Stability in biological media; format: in vitro ADME
[8] = Mouse pharmacokinetics, plasma half-life; format: in vivo; details: for t1/2: 10 mg/kg injection
Method: Further, mouse studies on 7 were carried out at The Cancer Center Pharmacology Core (CCPC, Colorado State University) by injection of 10 mg/kg of the compound, followed by euthanization at 15, 30, 60, 90, 120, 240, and 480 minutes. […] Mouse studies on 9 were performed in the same manner.

[9] = Stability in aqueous buffer; format: physicochemical

IC50 [2] [nM]	IC50 [3] [nM]	IC50 [4] [nM]	IC50 [5] [nM]	SMILES	MTD ([1]; mice) [mg/kg]	toxicity higher than 7 ([1]; vs 7) [fold]	IC50 ([2]; Homo sapiens, A549) [nM]	IC50 ([3]; Homo sapiens, MIA PaCa-2) [nM]	IC50 ([4]; Homo sapiens, MOLM-14) [nM]	IC50 ([5]; Homo sapiens, MDA-MB-231) [nM]	IC50 [6] [nM]	time to undetectable in biological media [7] [hour]	maximum tolerated dose (MTD) ([1]; mice) [mg/kg]	t1/2 [8] [min]	duration stable in aqueous buffer (for up to) [9]	time to little to no detection in mouse plasma [8] [min]
–	–	–	–	Clc1nc(Cl)c2[nH]cc(Br)c2n1 [Compound 6]	5 to 40	2	50 ± 20	14 ± 1	23 ± 4	400 ± 300	≥ 14	–	–	–	–	–
–	–	–	–	Clc1nc(Cl)c2c(n1)c(I)cn2COCc1ccccc1 [Compound 8, 5-((Benzyloxy)methyl)-2,4-dichloro-7-iodo-pyrrolo[3,2-d]pyrimidine]	–	–	–	7300 ± 800	–	6100 ± 400	–	–	–	–	–	–
–	–	–	–	Cc1ccc(S(=O)(=O)n2cc(I)c3nc(Cl)nc(Cl)c32)cc1 [Compound 9, 2,4-Dichloro-7-iodo-5-tosyl-pyrrolo[3,2-d]pyrimidine]	5 to 40	–	–	500 ± 20	–	790 ± 40	–	≤ 1	40	32.7	up to 24 hours	–
14500 ± 3500	5300 ± 1000	9500 ± 3100	9700 ± 9700	Clc1nc(Cl)c2[nH]ccc2n1 [Compound 19, 2,4-Dichloropyrrolo[3,2-d]pyrimidine]	–	–	–	–	–	–	–	–	–	–	–	–
–	–	–	–	Clc1nc(Cl)c2[nH]cc(I)c2n1 [Compound 20, 7-iodo-2,4-dichloro pyrrolo[3,2-d]pyrimidine]	5 to 40	–	1000 ± 100	370 ± 50	550 ± 70	1200 ± 400	≥ 14	–	–	30.7	–	≤ 70
